Source: PMC9104152, “Phosphoproteomics Unravel HBV Triggered Rewiring of Host Phosphosignaling Events” (International Journal of Molecular Sciences, 2022)

Legend:
[1] = Cytotoxicity assay (Cell-titer-GLO Luminescent Cell Viability Assay); format: cell-based, human; settings: human, HepG2-NTCP cells; HepG2-NTCP, cell viability 24 h post-treatment
Protocol: (§1) The IC50 of kinase inhibitors was determined using the Cell-titer-GLO Luminescent Cell Viability Assay kit (Promega, Madison, WI, USA) according to the recommendations from the manufacturer. Briefly, 10,000 HepG2-NTCP cells were seeded into a 96-well plate before treatment with various kinase inhibitor concentrations. Cell viability was assayed at 24 h post-treatment.

[2] = test system: HBV infection in HepG2-NTCP cells; test: HBV pgRNA level by real-time qPCR in kinase inhibitor treated HBV infected HepG2-NTCP; format: cell-based, Hepatitis B virus; settings: for HBV pgRNA Fold change (Treated/DMSO) / effect on pgRNA level (in words): 1 µM; for effect on pgRNA level (in words): both four dpi and seven dpi
Description: (§2) HBV were generated from a stable transfected hepablastoma cell line (Hep38.7) that expresses HBV as described previously. Briefly, Hep38.7 (tet-off) cells were induced to produce HBV particles through tetracycline withdrawal. Twelve days after tetracycline removal, culture media containing HBV were harvested and filtered through a 0.22 µm polyethersulfone (PES) membrane filter (Corning, New York, NY, USA). The virus supernatant was then concentrated using a heparin column and eluted with high salt, followed by overnight dialysis in phosphate-buffered saline (PBS). Real-time quantitative PCR was used to quantify the genome copy number of the HBV DNA. For infection, HepG2-NTCP cells at 70% confluence 1-day post-seeding were first treated with synchronisation medium consisting of complete medium with 3% DMSO and 500 µM L-Mimosin for 24 h. the cells were then incubated for 30 min with complete medium containing 800 µM of EGTA at 37 °C in a humidified 5% CO2 incubator. After the removal of EGTA-containing medium, the cells were infected with HBV at a multiplicity of infection (MOI) of 3000 in the presence of 4% PEG 8000 and 2.5% DMSO in DMEM/F12 medium supplemented with 2% FBS for 24 h. For the mock infection, cells were incubated for 24-hour in 4% PEG 8000, 2.5% DMSO in DMEM/F12 medium supplemented with 2% FBS. Upon virus removal followed by washing with PBS four times, HBV-infected cells were cultured in post-infection medium consisting of DMEM/F12 medium with 2% FBS and 1% DMSO. The post-infection medium was replaced at four days post-infection (dpi) and infected cells were harvested at day seven dpi. For phosphoproteome analysis, five biological replicates each of mock and HBV-infected HepG2-NTCP were used.
(§3) Total RNA was extracted using the RNeasy Mini Kit (Qiagen, Hilden, Germany) and digested with DNase according to the manufacturer’s protocol. For cDNA synthesis, 250–400 ng of total RNA was reverse transcribed with the iScript cDNA Synthesis Kit (Bio-Rad, Hercules, CA, USA) following the manufacturer’s protocol. cDNA was adjusted to 5 ng/µL using nuclease-free water and 2 μL of cDNA per reaction was used for qPCR analysis. Total DNA was extracted from the cells using the DNeasy Blood and Tissue Kit (Qiagen, Hilden, Germany) according to the manufacturer’s protocol.
To determine pgRNA level after HBV infection, HBV pgRNA was quantified by real-time qPCR using two HBV-specific primers: pgRNA-Forward, 5′-[…]-3′, and pgRNA-Reverse, 5′-[…]-3′ [49]. The housekeeping gene, GAPDH, was amplified using GAPDH forward primer 5′-[…]-3′ and GAPDH reverse primer 5′-[…]-3′. The relative fold change of pgRNA between conditions was determined using the ΔΔct method. Real-time qPCR was performed with iTaq Universal SYBR Green Supermix (Bio-Rad, Hercules, CA, USA). To determine the copy number of intracellular cccDNA, a probe-based qPCR approach was used. cccDNA was amplified using cccDNA forward primer 5′-[…]-3′ and cccDNA reverse primer 5′-[…]-3′. The Taqman probe 56, FAM/[…]/ZEN/[…]/3IABkFQ was used. The cccDNA copy number was determined using a standard curve approach with a 10× serial-diluted cccDNA template, starting from 10ng (Standard rang 1 fg to 1 ng). The reaction was carried out using the Luna Univeral Probe qPCR mix (NEB, Ipswich, MA, USA). To determine the level of HBeAg secretion, the HBeAg CLIA kit (Autobio diagnostic, Zhengzhou, China) was used. This assay was performed on 50 µL of medium harvested at four or seven dpi. All experiments were performed in triplicates and repeated twice for two additional biological replicates. The p-value was calculated using Student’s t-test (two-tailed, * p-value < 0.05, ** p-value < 0.01).
HBV infection on HepG2-NTCP was carried out as described earlier. At one dpi, the kinase inhibitors (Table 1) were added to the post-infection medium after the washing and removal of viruses containing infection medium. […]

[3] = test system: HBV infection in HepG2-NTCP cells; test: Intracellular cccDNA by probe-based qPCR in kinase inhibitor treated HBV infected HepG2-NTCP; format: cell-based; settings: 1 µM
Description: as §2
as §3, with “Total DNA was extracted from the cells using the DNeasy Blood and Tissue Kit (Qiagen, Hilden, Germany) according to the manufacturer’s protocol.” left out
To determine pgRNA level after HBV infection, HBV pgRNA was quantified by real-time qPCR using two HBV-specific primers: pgRNA-Forward, 5′-[…]-3′, and pgRNA-Reverse, 5′-[…]-3′ [49]. […] The relative fold change of pgRNA between conditions was determined using the ΔΔct method. […] The cccDNA copy number was determined using a standard curve approach with a 10× serial-diluted cccDNA template, starting from 10ng (Standard rang 1 fg to 1 ng). […] The p-value was calculated using Student’s t-test (two-tailed, * p-value < 0.05, ** p-value < 0.01). […]

[4] = test system: HBV infection in HepG2-NTCP cells; test: HBeAg secretion (HBeAg CLIA kit) in kinase inhibitor treated HBV infected HepG2-NTCP; format: cell-based; settings: 1 µM
Description: as §2
To determine pgRNA level after HBV infection, HBV pgRNA was quantified by real-time qPCR using two HBV-specific primers: pgRNA-Forward, 5′-[…]-3′, and pgRNA-Reverse, 5′-[…]-3′ [49]. The housekeeping gene, GAPDH, was amplified using GAPDH forward primer 5′-[…]-3′ and GAPDH reverse primer 5′-[…]-3′. The relative fold change of pgRNA between conditions was determined using the ΔΔct method. Real-time qPCR was performed with iTaq Universal SYBR Green Supermix (Bio-Rad, Hercules, CA, USA). To determine the copy number of intracellular cccDNA, a probe-based qPCR approach was used. cccDNA was amplified using cccDNA forward primer 5′-[…]-3′ and cccDNA reverse primer 5′-[…]-3′. The Taqman probe 56, FAM/[…]/ZEN/[…]/3IABkFQ was used. The cccDNA copy number was determined using a standard curve approach with a 10× serial-diluted cccDNA template, starting from 10ng (Standard rang 1 fg to 1 ng). […] The p-value was calculated using Student’s t-test (two-tailed, * p-value < 0.05, ** p-value < 0.01). […]

CLKs = settings: target CLKs; reported value, no reference given; cited from earlier work
CDK1 = settings: target CDK1; reported value, no reference given; cited from earlier work
HepG2-NTCP cells = test: Cytotoxicity assay (Cell-titer-GLO Luminescent Cell Viability Assay); format: cell-based, human
Protocol: as §1

CDK2 = settings: target CDK2; reported value, no reference given; cited from earlier work
CDK5 = settings: target CDK5; reported value, no reference given; cited from earlier work

SMILES	HBV pgRNA Fold change (Treated/DMSO) ([2]; 4dpi)	HBV pgRNA Fold change (Treated/DMSO) ([2]; 7dpi)	effect on pgRNA level (in words) [2]	Intracellular cccDNA Fold change (Treated/DMSO) ([3]; 4dpi)	Intracellular cccDNA Fold change (Treated/DMSO) ([3]; 7dpi)	HBeAg Titer Fold change (Treated/DMSO) ([4]; 4dpi)	HBeAg Titer Fold change (Treated/DMSO) ([4]; 7dpi)	IC50 (HepG2-NTCP cells)	further results
Cn1cc(-c2ccc3occ(-c4cccc(-c5ccncc5)c4)c3n2)cn1 [MU1210]	0.406	0.709	reduction in the pgRNA level	0.678	0.479	0.415	0.105	–	IC50 at 24 h [1]: 16.7 µM; Ki (CLKs): 0.023 µM
O=C1NC(=NCc2cccs2)S/C1=C\c1ccc2ncccc2c1 [RO-3306]	–	–	–	–	–	–	–	–	Ki (CDK1): 0.035 µM
Cn1cc(-c2ccc3occ(-c4ccccc4-c4ccccc4)c3n2)cn1 [MU140]	1.014	1.114	no such reduction	0.894	0.930	0.904	0.993	–	–
Nc1cc(Nc2ccc(S(N)(=O)=O)cc2)ncn1 [PNU112455A11]	–	–	–	–	–	–	–	> 500 µM	Ki (CDK2): 3.2 µM; Ki (CDK5): 3.6 µM
CN(C)c1nc2c(Br)c(Br)c(Br)c(Br)c2[nH]1 [DMAT]	–	–	–	–	–	–	–	> 500 µM	effect on pgRNA transcription (in words) ([2]; 10 µM, both four and seven dpi): reduction of pgRNA transcription
